pIC50: −log10 of the molar value.
System: 966289-007-R4-J1-PDC complex spheroid viability
Assay: Anticancer human tumor 966289-007-R4-J1-PDC patient-derived pancreatic adenocarcinoma cell line growth inhibition [RAS]
Conditions: for pIC50: curve of first compound; for viability, T/C: stronger effect = lower value
In short: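 Tumour cells grown as complex spheroids with HUVEC endothelial cells and mesenchymal stem cells, treated with RAS pathway inhibitor combinations. Each agent spans half-log steps from near clinical Cmax, or 10 microM where Cmax is unknown.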

[1] = second compound 0.000949 µM, first compound 0.0316 µM
[2] = second compound 0.000949 µM, first compound 0.1 µM
[3] = second compound 0.000949 µM, first compound 0.316 µM
[4] = second compound 0.000949 µM, first compound 1 µM
[5] = second compound 0.000949 µM, first compound 3.16 µM
[6] = second compound 0.000949 µM, first compound 10 µM
[7] = second compound 0.003 µM, first compound 0.0316 µM
[8] = second compound 0.003 µM, first compound 0.1 µM
[9] = second compound 0.003 µM, first compound 0.316 µM
[10] = second compound 0.003 µM, first compound 1 µM
[11] = second compound 0.003 µM, first compound 3.16 µM
[12] = second compound 0.003 µM, first compound 10 µM
[13] = second compound 0.00949 µM, first compound 0.0316 µM
[14] = second compound 0.00949 µM, first compound 0.1 µM
[15] = second compound 0.00949 µM, first compound 0.316 µM
[16] = second compound 0.00949 µM, first compound 1 µM
[17] = second compound 0.00949 µM, first compound 3.16 µM
[18] = second compound 0.00949 µM, first compound 10 µM
[19] = second compound 0.03 µM, first compound 0.0316 µM
[20] = second compound 0.03 µM, first compound 0.1 µM
[21] = second compound 0.03 µM, first compound 0.316 µM
[22] = second compound 0.03 µM, first compound 1 µM
[23] = second compound 0.03 µM, first compound 3.16 µM
[24] = second compound 0.03 µM, first compound 10 µM
[25] = second compound 0.0949 µM, first compound 0.0316 µM
[26] = second compound 0.0949 µM, first compound 0.1 µM
[27] = second compound 0.0949 µM, first compound 0.316 µM
[28] = second compound 0.0949 µM, first compound 1 µM
[29] = second compound 0.0949 µM, first compound 3.16 µM
[30] = second compound 0.0949 µM, first compound 10 µM
[31] = second compound 0.3 µM, first compound 0.0316 µM
[32] = second compound 0.3 µM, first compound 0.1 µM
[33] = second compound 0.3 µM, first compound 0.316 µM
[34] = second compound 0.3 µM, first compound 1 µM
[35] = second compound 0.3 µM, first compound 3.16 µM
[36] = second compound 0.3 µM, first compound 10 µM
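Further: spheroids exposed to agents for one week before readout.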
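Wherever viability, T/C is given: percent viability relative to DMSO vehicle control wells as 100%.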

CC(Nc1ccc2c(c1)OCCn1cc(N3C(=O)OCC3C(F)F)nc1-2)C(N)=O (stereo unspecified) + CCn1c(-c2cccnc2C(C)OC)c2c3cc(ccc31)N1CCOC(CC(NC(=O)C(C(C)C)N(C)C(=O)C3(F)CCN(C(=O)C#CC(C)(C)N(C)C)CC3)C(=O)N3CCCC(N3)C(=O)OCC(C)(C)C2)C1
pIC50 (second compound 0.000949 µM): < 5.00
pIC50 (second compound 0.003 µM): < 5.00
pIC50 (second compound 0.00949 µM): < 5.00
pIC50 (second compound 0.03 µM): < 5.00
pIC50 (second compound 0.0949 µM): < 5.00
pIC50 (second compound 0.3 µM): < 5.00
viability, T/C [1]: 97.2%
viability, T/C [2]: 114%
viability, T/C [3]: 121%
viability, T/C [4]: 77.1%
viability, T/C [5]: 90.5%
viability, T/C [6]: 74.9%
viability, T/C [7]: 93.7%
viability, T/C [8]: 99.9%
viability, T/C [9]: 111%
viability, T/C [10]: 83.4%
viability, T/C [11]: 78.2%
viability, T/C [12]: 86.1%
viability, T/C [13]: 73.8%
viability, T/C [14]: 105%
viability, T/C [15]: 111%
viability, T/C [16]: 92.6%
viability, T/C [17]: 103%
viability, T/C [18]: 77.3%
viability, T/C [19]: 60.7%
viability, T/C [20]: 94.2%
viability, T/C [21]: 106%
viability, T/C [22]: 82.3%
viability, T/C [23]: 114%
viability, T/C [24]: 88.5%
viability, T/C [25]: 69.8%
viability, T/C [26]: 91.7%
viability, T/C [27]: 105%
viability, T/C [28]: 108%
viability, T/C [29]: 105%
viability, T/C [30]: 82%
viability, T/C [31]: 101%
viability, T/C [32]: 94.8%
viability, T/C [33]: 124%
viability, T/C [34]: 97%
viability, T/C [35]: 135%
viability, T/C [36]: 73.8%

Cc1nc(N2CCC3(CC2)COC(C)C3N)c(CO)nc1Sc1ccnc(N)c1Cl (stereo unspecified) + CCn1c(-c2cccnc2C(C)OC)c2c3cc(ccc31)N1CCOC(CC(NC(=O)C(C(C)C)N(C)C(=O)C3(F)CCN(C(=O)C#CC(C)(C)N(C)C)CC3)C(=O)N3CCCC(N3)C(=O)OCC(C)(C)C2)C1
pIC50 (second compound 0.000949 µM): < 5.00
pIC50 (second compound 0.003 µM): < 5.00
pIC50 (second compound 0.00949 µM): < 5.00
pIC50 (second compound 0.03 µM): < 5.00
pIC50 (second compound 0.0949 µM): < 5.00
pIC50 (second compound 0.3 µM): < 5.00
viability, T/C [1]: 123%
viability, T/C [2]: 90.2%
viability, T/C [3]: 119%
viability, T/C [4]: 70.1%
viability, T/C [5]: 67.3%
viability, T/C [6]: 84.8%
viability, T/C [7]: 89.2%
viability, T/C [8]: 89.6%
viability, T/C [9]: 84.7%
viability, T/C [10]: 80.3%
viability, T/C [11]: 86.4%
viability, T/C [12]: 88.9%
viability, T/C [13]: 80.4%
viability, T/C [14]: 83.1%
viability, T/C [15]: 87%
viability, T/C [16]: 90.5%
viability, T/C [17]: 84%
viability, T/C [18]: 82.2%
viability, T/C [19]: 92.4%
viability, T/C [20]: 84.7%
viability, T/C [21]: 89.1%
viability, T/C [22]: 82.6%
viability, T/C [23]: 74.7%
viability, T/C [24]: 97.3%
viability, T/C [25]: 68.9%
viability, T/C [26]: 101%
viability, T/C [27]: 95.9%
viability, T/C [28]: 90.3%
viability, T/C [29]: 106%
viability, T/C [30]: 76.1%
viability, T/C [31]: 95.7%
viability, T/C [32]: 89.2%
viability, T/C [33]: 93.4%
viability, T/C [34]: 144%
viability, T/C [35]: 122%
viability, T/C [36]: 114%

CC1(C)CCC(Nc2ncc(C(F)(F)F)c(-c3c[nH]c4c(P(C)(C)=O)c(C#N)ccc34)n2)CN1 (stereo unspecified) + C#Cc1c(F)ccc2cc(O)cc(-c3ncc4c(N5CC6CCC(C5)N6)nc(OCC56CCCN5CC(F)C6)nc4c3F)c12
pIC50 (second compound 0.0316 µM): 7.77
pIC50 (second compound 0.1 µM): 7.81
pIC50 (second compound 0.316 µM): 7.74
pIC50 (second compound 1 µM): 7.71
pIC50 (second compound 3.16 µM): 7.72
pIC50 (second compound 10 µM): 7.73
viability, T/C (second compound 0.0316 µM, first compound 0.000949 µM): 113%
viability, T/C (second compound 0.0316 µM, first compound 0.003 µM): 107%
viability, T/C (second compound 0.0316 µM, first compound 0.00949 µM): 80.6%
viability, T/C (second compound 0.0316 µM, first compound 0.03 µM): 19.9%
viability, T/C (second compound 0.0316 µM, first compound 0.0949 µM): 15.4%
viability, T/C (second compound 0.0316 µM, first compound 0.3 µM): 11.9%
viability, T/C (second compound 0.1 µM, first compound 0.000949 µM): 107%
viability, T/C (second compound 0.1 µM, first compound 0.003 µM): 131%
viability, T/C (second compound 0.1 µM, first compound 0.00949 µM): 76.4%
viability, T/C (second compound 0.1 µM, first compound 0.03 µM): 20.8%
viability, T/C (second compound 0.1 µM, first compound 0.0949 µM): 13.4%
viability, T/C (second compound 0.1 µM, first compound 0.3 µM): 11.3%
viability, T/C (second compound 0.316 µM, first compound 0.000949 µM): 102%
viability, T/C (second compound 0.316 µM, first compound 0.003 µM): 134%
viability, T/C (second compound 0.316 µM, first compound 0.00949 µM): 90.3%
viability, T/C (second compound 0.316 µM, first compound 0.03 µM): 20.8%
viability, T/C (second compound 0.316 µM, first compound 0.0949 µM): 13.9%
viability, T/C (second compound 0.316 µM, first compound 0.3 µM): 12.9%
viability, T/C (second compound 1 µM, first compound 0.000949 µM): 106%
viability, T/C (second compound 1 µM, first compound 0.003 µM): 131%
viability, T/C (second compound 1 µM, first compound 0.00949 µM): 89.3%
viability, T/C (second compound 1 µM, first compound 0.03 µM): 27.3%
viability, T/C (second compound 1 µM, first compound 0.0949 µM): 13.8%
viability, T/C (second compound 1 µM, first compound 0.3 µM): 10.3%
viability, T/C (second compound 3.16 µM, first compound 0.000949 µM): 115%
viability, T/C (second compound 3.16 µM, first compound 0.003 µM): 135%
viability, T/C (second compound 3.16 µM, first compound 0.00949 µM): 91.7%
viability, T/C (second compound 3.16 µM, first compound 0.03 µM): 24.1%
viability, T/C (second compound 3.16 µM, first compound 0.0949 µM): 12.2%
viability, T/C (second compound 3.16 µM, first compound 0.3 µM): 12.1%
viability, T/C (second compound 10 µM, first compound 0.000949 µM): 101%
viability, T/C (second compound 10 µM, first compound 0.003 µM): 113%
viability, T/C (second compound 10 µM, first compound 0.00949 µM): 89.8%
viability, T/C (second compound 10 µM, first compound 0.03 µM): 21.9%
viability, T/C (second compound 10 µM, first compound 0.0949 µM): 15.1%
viability, T/C (second compound 10 µM, first compound 0.3 µM): 9.97%

From PubChem BioAssay AID2060897 (Molecular Pharmacology Branch, DTP, NCI, 2025)
